Entries after “also recorded” stand apart in the source; their conditions may differ. Where two headings read alike, the source gives them in different places.
Assays:
P388 leukemia cells = test: In vivo antitumor activity against P388 leukemia; parameters: species or system mice
Procedure: Male CDF1 mice (4 weeks old) were inoculated intraperitoneally with P388 leukemia cells (1×10^6 cells/body) on day 0. […] Each group consisted of six mice. A T/C (%) was calculated according to the following formula:
T/C (%)=[(mean number of survival days of treated group)/(mean number of survival days of control group)]×100

Microtubule protein = test: Electron microscopy of microtubule protein polymerization; type: biochemical, bovine; details: 100 μM, 37° C. for 20 min
Procedure: Microtubule protein (1.5 mg/ml) was polymerized at 37° C. for 20 min in the presence of 100 μM (−)-PLH or vehicle (DMSO). A portion of each sample was diluted 5-fold with 1% glutaraldehyde in the microtubule assembly buffer. Samples were then placed on formvar- and carbon-coated grids, stained with 2% uranyl acetate, and examined using a JEOLJEM-1200 EXII electron microscope JEOL (Tokyo, Japan).

[1] = tested on: phosphocellulose-purified tubulin; test: Polymerization of purified tubulin (turbidity); type: biochemical, bovine
Procedure: Microtubule protein was prepared from bovine brain tissue by two cycles of assembly and disassembly according to the method of Tiwari, S. C. et al. Anal. Biochem, (1993), 215, 96-103. Tubulin was purified from microtubule protein by phosphocellulose chromatography see Algaier, J. et al. Biochim. Biophys. Acta, (1988), 954, 235-43, and tubulin purity was evaluated by polyacrylamide gel electrophoresis, as in Laemmli, U.K., Nature, (1970), […], 680-85. […] Protein concentrations were determined using the Coomassie® Protein Assay Reagent from Pierce (Rockford, Ill.).
Polymerization of microtubule protein was monitored by an increase in turbidity at 37° C. in microtubule assembly buffer containing 100 mM MES, 0.5 mM MgCl2, 1 mM EGTA and 1 mM GTP. See Johnson, K. A. et al., J. Mol. Biol., (1977), 117, 1-31. Polymerization of purified tubulin was measured using the same method except the microtubule assembly buffer contained 4 M glycerol. See Lee, J. C. et al., Biochemistry, (1975), 14, 5183-87. Microtubule protein and tubulin polymerization was initiated by a temperature shift from 0° C. to 37° C. and turbidity was measured on a DU-20 thermocontrolled spectrophotometer from Beckman (Fullerton, Calif.) at 360 nm. Drugs were dissolved in dimethyl sulfoxide (DMSO), which was used in all experiments at a final concentration of 2% (v/v).

[2] = tested on: microtubules in A549 cells; test: Immunofluorescence staining of microtubules; type: cell-based, human; details: 6 hours incubation
Procedure: Immunocytochemical staining was performed using the method described by Yahara, I. et al., Cell (1978) 15, 251-259. A549 cells were cultured on glass coverslips and incubated with the test drug for 6 hours. The cells were then fixed with 3.7% formaldehyde for 30 min, permeabilized with 0.2% Triton X-100 for 5 min, and incubated with a mouse monoclonal antibody against α-tubulin (Calbiochem®, Oncogene Research Products, Cambridge, Mass.), followed by incubation with fluorescein isothiocyanate-conjugated goat anti-mouse IgG from Cosmo Bio Co., (Tokyo, Japan), and the cells were examined under an immunofluorescent microscope.

MCF7 (breast) = test: Antiproliferative activity, MTT assay (Table 7); type: cell-based; details: Homo sapiens, optical purity over 99.8%
Procedure: (§1) In order to examine detailed biological activity, especially antitumor activity of both (+)- and (−)-phenylahistin, resolution of (+)- and (−)-phenylahistin using chiral HPLC was conducted. By repeating chiral separation twice or three times, each enantiomer with an optical purity over 99.8% was obtained, and each enantiomer was recrystallizes from ethanol-hexane mixture.
(§2) Antitumor activity of (+)- and (−)-phenylahistin was examined against seven human cancer cell lines including A431, WiDr, TE-671, Hela, MCF7, A-549 and K562 cells.

A549 (lung) = test: Antiproliferative activity, MTT assay (Table 7); type: cell-based; details: Homo sapiens, optical purity over 99.8%
Procedure: as §1, §2

K562 (leukemia) = test: Antiproliferative activity, MTT assay (Table 7); type: cell-based; details: Homo sapiens, optical purity over 99.8%
Procedure: as §1, §2

Hela (ovary) = test: Antiproliferative activity, MTT assay (Table 7); type: cell-based; details: Homo sapiens, optical purity over 99.8%
Procedure: as §1, §2

WiDr (colon) = test: Antiproliferative activity, MTT assay (Table 7); type: cell-based; details: Homo sapiens, optical purity over 99.8%
Procedure: as §1, §2

A-431 (damal) = test: Antiproliferative activity, MTT assay (Table 7); type: cell-based; details: Homo sapiens, optical purity over 99.8%
Procedure: as §1, §2

bovine brain tubulin = test: [^3H]VLB binding competition assay; details: DEAE-cellulose filter method; listed as (−)-PLH
P388 cells = test: P388 proliferation, Alamar Blue assay; type: cell-based, murine; details: for IC50: Mus musculus
[3] = 4.2 mg/kg (1 mg/kg calculated (−)-PLH) i.p. daily days 1 to 12
[4] = 12.5 mg/kg (3 mg/kg calculated (−)-PLH) i.p. daily days 1 to 12
[5] = 42 mg/kg (10 mg/kg calculated (−)-PLH) i.p. daily days 1 to 12
[6] = 125 mg/kg (30 mg/kg calculated (−)-PLH) i.p. daily days 1 to 12

For `C=CC(C)(C)c1[nH]cnc1/C=C1\NC(=O)[C@H](Cc2ccccc2)NC1=O` (racemic) [PLH, phenylahistin], the “Mean Body weight on day 12” value (P388 leukemia cells; [3]) was 25.3 ± 0.4 g, the “Mean Number of Survival days” value (P388 leukemia cells; [3]) was 14.6 ± 0.6 days and the “T/C (%)” value (P388 leukemia cells; [3]) was 117%. The “Mean Body weight on day 12” value (P388 leukemia cells; [4]) was 24.1 ± 0.6 g, the “Mean Number of Survival days” value (P388 leukemia cells; [4]) was 14.6 ± 0.5 days and the “T/C (%)” value (P388 leukemia cells; [4]) was 117%. For the same molecule, the “Mean Body weight on day 12” value (P388 leukemia cells; [5]) was 23.0 ± 0.5 g, the “Mean Number of Survival days” value (P388 leukemia cells; [5]) was 16.1 ± 0.8 days and the “T/C (%)” value (P388 leukemia cells; [5]) was 129%. For the same molecule, the “Mean Body weight on day 12” value (P388 leukemia cells; [6]) was 22.3 ± 0.3 g, the “Mean Number of Survival days” value (P388 leukemia cells; [6]) was 18.9 ± 0.9 days and the “T/C (%)” value (P388 leukemia cells; [6]) was 151%. For the same molecule, the “increases in body weight seen in the control group” value (P388 leukemia cells; daily administrations of PLH 41.5 and 124 mg/kg) was “suppressed”, the T/C (P388 leukemia cells; daily dosage of 41.5 mg/kg for 12 days) was 129% and the T/C (P388 leukemia cells; daily dosage of 124 (30) mg/kg for 12 days) was 151%. For the same molecule, the tremorgenic side effects (P388 leukemia cells; highest dose (124 mg/kg/day)) was “did not induce such side effects” and the T/C (P388 leukemia cells; single administration, 415 mg/kg PLH [(−)-PLH 100 mg/kg]) was 115%.

With `C=CC(C)(C)c1[nH]cnc1/C=C1\NC(=O)[C@H](Cc2ccccc2)NC1=O` [(−)-phenylahistin] the “microtubule structures by electron microscopy” value (Microtubule protein) was “did not contain such structures”, the “inhibition of tubulin polymerization compared with CLC” value [1] was “as effective as CLC” and the “microtubule structure (anti α-tubulin staining)” value [2] was “disappearance of the microtubule network”. For the same molecule, the IC50 (MCF7 (breast)) was 330 nM, the IC50 (A549 (lung)) was 300 nM and the IC50 (K562 (leukemia)) was 190 nM. It also gave an IC50 (Hela (ovary)) of 200 nM, an IC50 (WiDr (colon)) of 180 nM and an IC50 (A-431 (damal)) of 220 nM. The “effect on [^3H]VLB binding to tubulin” value (bovine brain tubulin) was “not inhibited; also recorded: slightly enhanced”, the “times more active than (+)-phenylahistin in anti-proliferative assays” value (P388 cells) was 50 times and the IC50 (P388 cells; P388, read-out: IC50 P388 proliferation) was 210 nM. The IC50 (P388 cells; P388, read-out: IC50 for P388 Proliferation) was 210 nM and the “times less active than colchicine, anti-proliferative activity” value (P388 cells; P388) was “about 10 times”.

— patent US20040102454A1, “Phenylahistin and the phenylahistin analogs, a new class of anti-tumor compounds” (priority 1998, published 2004)
